Patent US20260007634A1, “PHARMACEUTICAL COMPOSITIONS FOR THE TREATMENT OF ALLERGIC DISEASES” (KINKI UNIVERSITY, priority 2022, published 2026)

Columns and labels:
NF-κB p52 [1] = assay: LPS-stimulated B cells, nuclear NF-κB p52 (Western blotting); type: cell-based, mouse; conditions: 10 μM compound; vs 10 μg/mL LPS
Experimental: (§1) Spleens were harvested from 6-week-old male Balb/c mice and B cells were isolated. After isolation, the cells were seeded in […] dish and cultured in RPMI 1640 medium for 1 day and used as control. In addition, B cells were seeded into 100 mm^2 dish, and after 1 day of culture, 10 μg/mL LPS was added and cultured for 1 h. Furthermore, B cells were seeded in […] dish, and after 1 day of culture, 10 μM mangiferin 8a and 10 μM norathyriol were added to B cells, and after 23 h, 10 μg/mL LPS was added to each, and the cells were incubated for 1 h. All were incubated at 37° C. and 5% CO2.
(§2) Proteins were extracted with cell lysate and used as samples. Each sample was transferred to a PVDF membrane after SDSPAGE and assayed with anti-phospho-NIK, anti-NIK, anti-NF-κB p52, anti-NF-κB p65 and anti-Lamin antibodies.
(§3) The antibody species is indicated in the vertical direction. Specifically, in the case of anti-phospho-NIK antibody (described as “Phospho-NIK”), anti-NIK antibody (described as “NIK”), anti-NF-κB p52 antibody (described as “NF-κB p52 nuclear”), anti-NF-κB p65 antibody (described as “NF-κB p65 nuclear”) and anti-Lamin antibody (described as “Lamin”).

[2] = system: Balb/c mice with ovalbumin-induced food allergy; assay: Frequency of diarrhea, ovalbumin-induced food allergy mice; type: in vivo, mouse; conditions: OVA food allergy; oral daily 14 days from day 14, 10 mg/kg (dexamethasone 2 mg/kg); measured day 28; vs vehicle group
Experimental: A 0.2 mL dose of 10 μg ovalbumin (OVA) and 1 mg Alum mixture was administered to 6-week-old female Balb/c mice (Japan SLC Inc.) (day 0 of the example). Alum was used as an adjuvant. Seven days later, the Balb/c mice were immunized again with a 0.2 mL injection of the above mixture. Starting on day 14, mice were orally treated with 10 mg/kg of norathyriol, 10 mg/kg of mangiferin 8a, 10 mg/kg of tofacitinib (JAK inhibitor), 2 mg/kg of dexamethasone (steroid) and 10 mg/kg of olopatadine (antihistamine) daily for 14 consecutive days. Starting on day 14, 10 mg OVA was administered orally every other day […], and the frequency of diarrhea was measured after the final administration on day 28. Note that tofacitinib, dexamethasone, and olopatadine are currently in clinical use in food allergy and were used as control drugs in this example.
The group that was just immunized with OVA is called the subject group, the one that received norathyriol is called the norathyriol group, the one that received mangiferin 8a is called the mangiferin 8a group, the one that received tofacitinib is called the tofacitinib group, the one that received dexamethasone is called the dexamethasone group, and the one that received olopatadine is called the olopatadine group. Each group consisted of five animals.

NF-κB p52 [3] = assay: BAFF-stimulated B cells, nuclear NF-κB p52 (Western blotting); type: cell-based, mouse; conditions: vs 100 ng/mL BAFF; 100 μM mangiferin, 20 μM 1,3,5,6-tetrahydroxyxanthone, 10 μM others
Experimental: as §1, with “culture, 100 ng/mL BAFF” for “culture, 10 μg/mL LPS”, “culture, 100 μM mangiferin,” for “culture,”, “mangiferin 8a, 10 μM norathyriol, 20 μM 1,3,5,6-tetrahydroxyxanthone, 10 μM xanthohydrol, 10 μM of α-mangostin,” for “mangiferin 8a”, “μM of γ-mangostin” for “μM norathyriol”, “h, 100 ng/mL BAFF” for “h, 10 μg/mL LPS”
as §2, §3

Treg cells = assay: Treg cell activation in inflammation-induced mouse model (Foxp3 flow cytometry); type: in vivo; conditions: DBA/1J mice, Freund's complete adjuvant + bovine type2 collagen; oral 10 mg/kg daily 20 days; thymus cells; vs vehicle group
Experimental: Equal volume mixtures of Freund's complete adjuvant and Bovine type2 collagen were administered to 6-week-old male DBA/1J mice (Japan SLC Inc.) at 0.1 mL (day 0 of the study). 21 days later, DBA/1J mice were again injected with 0.1 mL of the above mixture for secondary immunization. After the second immunization, mice were orally treated with 10 mg/kg of mangiferin 8a and 10 mg/kg of norathyriol daily for 20 days. 20 days later, thymus glands were harvested from mice and stained with anti-CD4, anti-CD25 and anti-Foxp3 antibodies, which are Treg cell markers, and expression of Foxp3 (CD4 positive and CD25 positive) was measured using BD LSRFortessa.

NIK [4] = biological target: T1, NIK (Mus musculus, UniProt Q9WUL6); assay: BAFF-induced NIK activation in B cells (Western blotting, phospho-NIK); type: cell-based
T1 construct: Proteins were extracted with cell lysate and used as samples; endogenous in cells; host or cells: primary splenic B cells from 6-week-old male Balb/c mice
T1 sequence (Q9WUL6 whole entry): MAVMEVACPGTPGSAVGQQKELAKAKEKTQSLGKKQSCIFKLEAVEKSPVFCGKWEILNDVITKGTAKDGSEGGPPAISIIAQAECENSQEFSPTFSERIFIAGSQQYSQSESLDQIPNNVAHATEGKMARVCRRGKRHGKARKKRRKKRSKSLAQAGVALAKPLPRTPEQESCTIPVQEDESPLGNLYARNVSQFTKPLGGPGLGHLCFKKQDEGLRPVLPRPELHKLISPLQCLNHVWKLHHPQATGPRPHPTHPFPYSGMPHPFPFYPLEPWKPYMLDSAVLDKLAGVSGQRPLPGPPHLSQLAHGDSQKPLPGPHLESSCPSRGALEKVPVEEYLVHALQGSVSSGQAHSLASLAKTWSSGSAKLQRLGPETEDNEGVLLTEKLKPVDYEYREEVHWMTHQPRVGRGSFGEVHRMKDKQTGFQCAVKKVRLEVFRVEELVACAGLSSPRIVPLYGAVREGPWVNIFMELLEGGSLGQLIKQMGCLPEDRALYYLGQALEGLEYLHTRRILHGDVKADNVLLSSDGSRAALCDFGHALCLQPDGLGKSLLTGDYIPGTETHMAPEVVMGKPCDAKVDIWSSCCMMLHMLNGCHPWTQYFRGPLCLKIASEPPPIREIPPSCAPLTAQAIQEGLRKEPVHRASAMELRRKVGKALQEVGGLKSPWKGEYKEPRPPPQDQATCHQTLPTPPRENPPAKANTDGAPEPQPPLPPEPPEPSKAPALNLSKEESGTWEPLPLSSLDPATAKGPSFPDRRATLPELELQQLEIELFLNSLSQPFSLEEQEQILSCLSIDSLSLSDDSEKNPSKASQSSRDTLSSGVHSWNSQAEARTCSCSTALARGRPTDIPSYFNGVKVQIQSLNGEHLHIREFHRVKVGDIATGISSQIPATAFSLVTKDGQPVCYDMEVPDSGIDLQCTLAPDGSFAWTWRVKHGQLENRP
Experimental: as §1, with “culture, 100 ng/mL BAFF” for “culture, 10 μg/mL LPS”, “culture, 100 μM mangiferin,” for “culture,”, “mangiferin 8a, 10 μM norathyriol, 20 μM 1,3,5,6-tetrahydroxyxanthone, 10 μM xanthohydrol, 10 μM of α-mangostin,” for “mangiferin 8a”, “μM of γ-mangostin” for “μM norathyriol”, “h, 100 ng/mL BAFF” for “h, 10 μg/mL LPS”
as §2, §3

NIK [5] = biological target: T1, NIK; assay: LPS-induced NIK activation in B cells (Western blotting, phospho-NIK); type: cell-based; conditions: 10 μM compound 23 h, then 10 μg/mL LPS 1 h
Experimental: as §1, §2, §3

[6] = system: Monocytes collected from mice; assay: LPS-induced M1 macrophage activation (CD80 flow cytometry); type: cell-based, mouse; conditions: 10 μM compound, 10 μg/mL LPS, 10 days; vs LPS-added group
Experimental: Monocytes collected from mice were cultured in RPMI 1640 medium for 1 day. Then, 10 μM mangiferin 8a and 10 μM norathyriol were added to Monocytes, and after 1 day of culture, 10 μg/mL of LPS was added, followed by 10 days of culture. After 10 days of culture, cells were stained with anti-CD11b and anti-F4/80 antibodies, markers of macrophages, and anti-CD80 antibody, marker of M1 macrophages, and CD80 (CD11b positive and F4/80 positive) expression was measured using BD LSRFortessa.

## O=c1c2cc(O)c(O)cc2oc2cc(O)cc(O)c12 [norathyriol, 1,3,6,7-tetrahydroxyxanthone]
NF-κB p52 [1]
  nuclear NF-κB p52 band (immunoblotting): fainter
[2]
  frequency of diarrhea: showed a marked decrease in the frequency of diarrhea
NF-κB p52 [3]
  nuclear NF-κB p52 band (immunoblotting): fainter
Treg cells
  Foxp3 expression (CD4 positive and CD25 positive): slightly increased
NIK [4]; 100 ng/mL BAFF 1 h after 23 h compound, 100 μM mangiferin, 20 μM 1,3,5,6-tetrahydroxyxanthone, 10 μM others
  phospho-NIK band (immunoblotting): fainter
NIK [4]; general statement in the description, referring to the examples
  inhibition of NIK activity compared with mangiferin: more inhibition of NIK activity than mangiferin
NIK [5]
  phospho-NIK band (immunoblotting): fainter
[6]
  CD80 expression (CD11b positive and F4/80 positive): markedly reduced
